For experiment [1], the target named is T1, human recombinant MDH1 (Homo sapiens, UniProt P40925).
T1 construct: purchased BioVision
T1 sequence (P40925 1-334): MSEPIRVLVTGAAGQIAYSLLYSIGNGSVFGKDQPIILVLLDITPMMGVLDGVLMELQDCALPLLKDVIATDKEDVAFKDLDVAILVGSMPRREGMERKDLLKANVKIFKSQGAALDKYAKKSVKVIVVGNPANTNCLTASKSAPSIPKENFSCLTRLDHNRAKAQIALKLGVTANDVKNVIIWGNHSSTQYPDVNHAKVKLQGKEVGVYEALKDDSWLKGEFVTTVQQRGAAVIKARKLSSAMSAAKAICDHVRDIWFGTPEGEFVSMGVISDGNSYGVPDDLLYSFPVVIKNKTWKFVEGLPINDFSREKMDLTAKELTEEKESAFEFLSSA
The experiment is described as follows: MDH1 enzyme activity assay (oxaloacetate-dependent NADH oxidation). The experiment is classed as biochemical. The note with it: means of three experiments. From the text: To develop the dual inhibitors of MDH1 and MDH2, we screened the newly synthesized LW1497 derivatives using MDH and MDH2 enzyme assays. LW1497 was used as the positive control for the MDH1/2 dual inhibitor. We evaluated the ability of the synthesized compounds to inhibit human recombinant MDH1 and MDH2 enzymatic activity using an oxaloacetate-dependent NADH oxidation assay (Table 1, Table 2, Table 3, Table 4, Table 5 and Table 6). Our SAR optimization strategy focused on four different parts of LW1497: (A) the introduction of various groups at different positions on the amide phenyl ring; (B) the replacement of the 3-(4-(2,4,4-trimethylpentan-2-yl) alkyl chain; (C) the alteration of the amide portion; and (D) the modification of the oxypropanamide linker portion (Figure 1).
The activities of MDH1 and MDH2 were confirmed using an oxaloacetate-dependent NADH oxidation assay. Experiments were conducted using 100 mM of potassium phosphate buffer (pH 7.4) and human recombinant MDH1 (BioVision) and MDH2 (BioVision), and the results were obtained by measuring the absorbance at 340 nm. Enzyme activity was measured using a plate reader at a wavelength of 340 nm.

The subject of experiment [2] is A549 lung cancer cells. The experiment can be described thus: Cell growth inhibition assay (SRB), A549. The note with it: Homo sapiens, means of three experiments, read-out: Cell Viability IC50 A549. Format: cell-based. The procedure:
At the same time, we investigated the effect of the compounds on the growth inhibition of A549 and H460 lung cancer cells bearing KRAS and LKB1 mutations. […] Compound 50 containing a piperidine linker was selected for further analysis.
(§1) Human lung carcinoma A549 cells were cultured in Dulbecco’s modified Eagle’s medium and H460 cells were cultured in RPMI 1640 medium containing 10% fetal bovine serum and 1% penicillin/streptomycin at 37 °C with a 5% Co2 hypoxia experimental condition. The cells were grown in the hypoxia chamber (1% O2, 94% N2, and 5% Co2 in a multigas incubator)
Cell growth inhibition was assessed using sulforhodamine B (SRB) as described in [34]. The cells were fixed with 10% formalin (Sigma-Aldrich) and stained with 0.4% SRB. Protein-bound dye was dissolved in 10 mM of Tris, and its optical density was measured at 540 nm.

For experiment [3], the system named is A549 cells. The experiment can be described thus: Intracellular ATP content (ATPlite). Format: cell-based, human. The note with it: 6 h. Here is the method: (§2) Malate transported to the interior of the mitochondria is oxidized to OAA by mitochondrial MDH2, thereby generating NADH, which then enters the ETC to produce ATP. Because inhibition of MAS is expected to reduce ATP production in cancer cells, the total amount of ATP was measured after treatment with compound 50.
A549 cells (1 × 10^4 cells/96-well plate) were incubated for 6 h with or without drugs. After removing the supernatant, an ATP assay was performed using ATPlite (PerkinElmer, Waltham, MA, USA) according to the manufacturer’s instructions. ATP content was measured using a luminometer (Synergy HTX multimode reader, Winoski, VT, USA).
In general terms: Cellular ATP, detected with luciferase, serves as a proxy for viable cell number.

Experiment [4] relates to A549 cells. The experiment can be described thus: ADP/ATP ratio assay. The experiment is classed as cell-based, human. The procedure:
as §2
The ADP/ATP ratio assay kit (Sigma-Aldrich, USA) was used for ADP/ATP determination according to the manufacturer’s instructions. Samples for analysis were prepared using the ADP/ATP ratio assay kit. A549 cells were cultured directly in an assay microplate. The culture medium was removed, and then 90 µL of ATP reagent was added to each well and incubated for 1 min at room temperature. Luminescence was measured on a luminometer for ATP (RLUA), and the plate was incubated for an additional 10 min. Next, the luminescence was read on a luminometer for ATP (RLUB). Five microliters of ADP reagent were added to each well. After 1 min, the luminescence was read (RLUC).

Experiment [5] has as its system HIF-1α. The experiment can be described thus: Western blot of HIF-1α and its target genes under hypoxia. Format: cell-based, human. The note with it: A549 cells, hypoxia. Here is the method:
Previously, it has been reported that the inhibition of MDH1 or MDH2 enzymes is related to HIF-1a expression levels. We investigated whether compound 50 decreases HIF-1α accumulation in A549 cells (Figure 6). […] Additionally, we confirmed that compound 50 suppressed the protein expression of HIF-1α target genes, such as GLUT1 and PDK1 (Figure 6), as clearly shown by the Western blot assay.
as §1
(§3) The cells were lysed with RIPA buffer (Millipore, Billerica, MA, USA) containing a protease inhibitor cocktail (Roche, Basel, Switzerland) for 15 min at 4 °C and centrifuged at 12,000 rpm for 10 min. The lysates were quantified using a protein assay kit (Bio-Rad, Hercules, CA, USA). The lysates were subjected to an SDS-PAGE analysis and transferred to PVDF membranes (Millipore, Billerica, MA, USA). The proteins were identified using the appropriate antibodies: HIF-1α (BD Transduction Laboratories, San Diego, CA, USA), pyruvate dehydrogenase kinase 1 (PDK1) (Cell Signaling, Danvers, MA, USA), GLUT1 and β-action (Santa Cruz Biotechnology, Danvers, MA, USA), and CD73 (Proteintech, Rosemont, IL, USA).
In general terms: Immunoblotting shows a protein as a band on a membrane.

The subject of experiment [6] is CD73. The experiment is described as follows: Western blot of CD73 expression under hypoxia. Format: cell-based, human. The note with it: A549 cells. Here is the method:
(§4) It has been reported that CD73 expression is induced by HIF-1α under hypoxic conditions. Therefore, we examined whether the expression of CD73 is inhibited by compound 50 under hypoxia in A549 lung cancer cells. […] To confirm the effect of compound 50 on CD73 expression, we performed ELISA for CD73.
as §1, §3

Experiment [7] deals with CD73. The experiment can be described thus: CD73 ELISA. Format: cell-based, human. The note with it: A549 cells; for CD73 level (%): hypoxic conditions, 0 μM = 100. Here is the method:
as §4
The prepared samples were incubated with the same amount of antibody cocktail for 1 h at room temperature and then washed three times with PT buffer. After washing, the plates were developed by adding 100 µL of TMB development solution, and the reaction was stopped by adding 100 µL of stop solution. The amount of CD73 was quantitatively measured according to the instructions on the Human CD73 Simplestep ELISA kit (Abcam, Cambridge, UK).
A general note: In an ELISA, binding on a coated surface is turned into a signal by an enzyme label.

What is called IC50 is the midpoint of a concentration-inhibition curve.

For `CC(C)(C)CC(C)(C)c1ccc(N2CCC(C(=O)Nc3cccc(OC(F)(F)F)c3)CC2)cc1` [Compound 50, N-(3-(Trifluoromethoxy)phenyl)-1-(4-(2,4,4-trimethylpentan-2-yl)phenyl)piperidine-4-carboxamide], the IC50 worked out at 3.33 ± 0.18 µM in experiment [1] and 3.94 ± 0.04 µM in experiment [2]. The ATP level result in experiment [3] was “reduced ATP level”. The ADP/ATP entry in experiment [4] was “increase in ADP/ATP”. The HIF-1α accumulation entry in experiment [5] is listed as “decreased HIF-1α accumulation in a dose-dependent manner”. Further, in experiment [5] (Western blot), the “protein expression of HIF-1α target genes GLUT1 and PDK1” value is reported as “suppressed”. In experiment [6], the “CD73 expression increased by HIF-1α” value is recorded as “significantly decreased”. Further, the CD73 levels entry in experiment [7] (ELISA) was “reduced CD73 levels in A549 cells in a dose-dependent manner”. The “CD73 level (%)” value in experiment [7] (2.5 μM) was 90%; in experiment [7] (5.0 μM), 84%; in experiment [7] (10 μM), 68%.

The record behind these values is PMC10263210, “Design, Synthesis and Biological Evaluation of Novel MDH Inhibitors Targeting Tumor Microenvironment” (Pharmaceuticals, 2023).
